Results on four compounds are retold here after ChEMBL document CHEMBL1159301, “Isolation and absolute configuration of ent-Halimane diterpenoids from Hymenaea courbaril from the Suriname rain forest” (J Nat Prod, 2002).

The source made the active and inactive calls. The calls are words filed in the database; no cut-off is given here.

For one assay, the system named is A2780. The assay is described as follows: Cytotoxicity against human A2780 cells after 48 hrs by alamar blue assay. In kind it is functional, cell-based. (In general: Resazurin is reduced to fluorescent resorufin, in cell work by metabolically active cells.)
Another assay has as its system Saccharomyces cerevisiae. In words: DNA damaging activity against yeast 1138 mutant assessed as drug level required to produce 12 mm zone of inhibition. Type of assay: functional.

Take `C=C[C@](C)(O)CC[C@]1(C)C2=CCC[C@](C)(C(=O)N[C@@H](C(=O)OC)c3ccccc3)[C@H]2CC[C@H]1C`: the result in the assay on A2780 and with Saccharomyces cerevisiae was inactive.

In general, IC50 refers to the midpoint of a concentration-inhibition curve. For `C=C[C@](C)(O)CC[C@]1(C)C2=CCC[C@](C)(C(=O)O)[C@H]2CC[C@H]1C`, in the assay with A2780 (A2780, 48 h), the IC50 is > 40 µg/mL. Also, in the assay with Saccharomyces cerevisiae, the IC12 is 925 µg/mL.

As for `C=C[C@](C)(O)CC[C@]1(C)C2=CCC[C@](C)(C(=O)N[C@H](C(=O)OC)c3ccccc3)[C@H]2CC[C@H]1C`, the result with A2780 and with Saccharomyces cerevisiae was inactive.

Take `C=C[C@](C)(O)CC[C@]1(C)C2=CC(=O)C[C@](C)(C(=O)O)[C@H]2CC[C@H]1C`: the outcome with A2780 and in the assay on Saccharomyces cerevisiae was inactive.
